Patent publication US8211906B1, “Method of inhibiting growth of neoplastic cells and inhibiting infection by administering an immune enhancer drug” (priority 2003, dated 2012)
Converted amounts (≈) assume the structure as drawn.

How the values were obtained:
[1] = physchem; details: water
[2] = cited from earlier work
[3] = system: primary genital herpes; details: guinea pigs, single dose; cited from earlier work
[4] = system: varicella zoster; details: in vitro, cells infected with varicella zoster; cited from earlier work
[5] = system: isolated human mononuclear cells; details: cited from earlier work
[6] = system: rhinovirus 1A; details: in vitro, cells infected with rhinovirus 1A; cited from earlier work
[7] = system: Rift Valley Fever virus; details: monkeys; cited from earlier work
[8] = system: spleen, bone marrow, liver, peritoneal exudates and alveolar macrophages; details: in vitro; cited from earlier work
[9] = system: a number of different tumor cell types; details: mice implanted with tumor cells; cited from earlier work
[10] = system: Banzi virus; details: monkeys; cited from earlier work
[11] = cited from earlier work; remark: listed apart in the source
[12] = aqueous solubility; details: pH 7.4, aqueous buffer
[13] = topical; cited from earlier work
[14] = system: respiratory syncytial virus; details: in vitro, cells infected with respiratory syncytial virus; cited from earlier work
[15] = cited from earlier work; remark: listed apart in the source
[16] = system: cutaneous metastatic melanoma; details: topical, under occlusion; cited from earlier work
[17] = system: mouse spleen cell cultures; details: cited from earlier work

## CC(C)(C)CC(=O)OCC(=O)[C@@]12OC(C)(C)O[C@@H]1C[C@H]1[C@@H]3CCC4=CC(=O)C=C[C@]4(C)[C@@]3(F)[C@@H](O)C[C@@]12C [Triamcinolone hexacetonide]
[1]
  solubility: 3.75 µM (≈ 2 µg/mL)

## CC(C)Cn1cnc2c(N)nc3ccccc3c21 [imiquimod, 1-(2-methylpropyl)-1H-imidazo[4,5-c]quinolin-4-amine]
[2]; free base form
  solubility in water and common organic solvents: almost insoluble
[2]; physiologic pH
  solubility at physiologic pH: 1-2 μg/ml
[3]
  treatment of primary genital herpes infections: effectively treats
[4]
  plaque reduction: 50%
[5]
  concentration of maximal interferon-alpha production: 3 µM
[6]
  plaque reduction: 50%
[7]
  efficacy against Rift Valley Fever virus: effective
[8]
  time of cytokine induction after exposure: 1 to 2 h
  time of peak cytokine induction: 8 h
[9]
  anti-tumor effect: effective anti-tumor agent
[10]
  efficacy against Banzi virus: effective
[11]; dermal administration
  systemic exposure: minimal
[11]; oral administration
  absorption: rapidly absorbed
[12]
  solubility: 4 µM (≈ 0.961 µg/mL)
[13]
  effect on contact allergy to dinitrochlorobenzene: enhanced contact allergy
[14]
  plaque reduction: 50%
[15]; oral administration
  systemic toxicity: significant systemic toxicity
[15]; topical administration of creams
  skin irritation: significant skin irritation
[16]
  treatment of cutaneous metastatic melanoma: successfully treated
[17]
  concentration of maximum activity, induced proliferation: 1 µg/mL
